Assays:
Ai14 mice = assay: In vivo genome editing, intramuscular injection, tdTomato expression; design: species or system mouse; conditions: single IM dose, day 10
Procedure: Similar to the in vitro transfection study, lipidoid nanoparticles were prepared for mRNA or protein loading and in vivo delivery. Ai14 mice were housed in a temperature and humidity controlled facility with a 12 h light/dark cycle. Three mice in each group were injected (intravenously or intramuscularly) with Cre mRNA-loaded or (−30)GFP-Cre protein-loaded LNPs formulations. Organs including heart, liver, spleen, lung and kidney from all groups were collected at day 10 (intramuscular injection) or 14 (intravenous injection) after injection. The tissues were fixed overnight in 4% paraformaldehyde (PFA) and dehydrated in 30% sucrose before being froze in OCT and sectioned into 10-15 μm slices. The slices were then collected and stained with DAPI for fluorescence imaging (BZ-X Analyzer fluorescence microscopy).
Cre-loxP system and transgenic Ai14 mouse model were used in the in vivo genome editing study. […] When the Cre recombinase mediated gene reorganization occurs, the STOP cassette could be removed, resulting in the expression of fluorescent tdTomato reporter protein.
Local delivery through intramuscular injection (IM injection; rear leg) using (−30)GFP-Cre protein and Cre mRNA loaded 76-OCholB LNPs (FIG. 17B). Ai14 mice (n=3) received single dose of (−30)GFP-Cre/LNPs (50 μg of protein) or mRMA/LNPs (10 μg of mRNA) injection at day 1 and were sacrificed at day 10. […]

[1] = Thiol-triggered Nile red release; assay type: physicochemical
Procedure: Lipidoids were fabricated into nanoparticles for all delivery applications. Briefly, lipidoids were mixed with sodium acetate buffer (25 mM, pH 5.2), sonicated for 30 min in an ultrasonic bath, followed by another 30 min of vigorous vortexing. The as-prepared blank LNPs were stored at 4° C. For Cy5-RNA/LNP, mRNA/LNP and protein/LNP complexation, blank lipidoid nanoparticles were mixed with RNA molecules or (−30)GFP-Cre protein in PBS buffer (pH 7.4) following our previously reported procedures and incubated at room temperature for another 30 min before use. Typical procedures for Nile red encapsulation are as follows: 5 μL of Nile red stock solution in acetone was added into an empty vial, which was then placed in a vacuum oven to completely remove the organic solvent. Then, a predetermined amount of blank LNP stock solution (1.0 mg/mL) was added into the vial. The mixture was sonicated for 40 min in an ultrasonic bath and stirred overnight at room temperature. The final concentration of Nile red was adjusted to 6.6×10-7 mol L-1 and 6×10-7 mol L-1 for thiol triggered release study and cell incubation, respectively, by diluting with PBS as necessary. Typical procedures for CPT and DiO/DiI FRET pair encapsulation are as follows: 100 μL of DiO/DiI stock solution in MeOH was charged into an empty vial and placed in a vacuum oven to remove the organic solvent. Lipidoids (2.0 mg) in 200 μL of methanol were then added into the vial and stirred to produce a homogeneous solution. Then, 600 μL of DI water was added dropwise in 10 min with continuous stirring. The resulting mixture was dialyzed against DI water for 24 h (Thermo Scientific Slide-A-Lyzer Dialysis Cassette, MWCO=3500 Da), and fresh water was replaced every 4 h. Typical procedures for encapsulation of calcein and doxonorubicin hydrochloride are as follows: precalculated amounts of calcein or Dox stock solutions in DI water was diluted into 800 μL with sodium acetate buffer, and used as the selective solvents to trigger the self-assembly process of lipidoids in methanol (5 mg/mL), respectively. The unloaded calcein or Dox was removed by dialysis against DI water (Thermo Scientific Slide-A-Lyzer Dialysis Cassette, MWCO=3500 Da).
The reduction triggered release behavior of encapsulated cargoes was then studied by using nile red loaded 75-OCholB LNPs (NR/75-OCholB), taking advantage of the microenvironmental polarity sensitive photophysical property of nile red. […] In the meantime, 20 μM Cysteine treated NR/75-OCholB released 4.2% of nile red in 2 h and 6.9% in 6 h, which could be ascribed to the previously discussed minimal structural and morphological changes of the LNPs under the stimulus of low concentration of thiols (FIGS. 11A and 11C). […] Furthermore, the binding affinity of OCholB LNPs with negatively charged macromolecular cargo, Cy5-RNA, was examined. […] Additionally, similar to the responsiveness study, it is reasonable that the cargo release profiles could depend on both of the species and concentrations of the thiols-containing regents. Above all, OCholB LNPs loaded with cargoes are relatively stable in the presence of low concentration of thiols and the triggered release behaviors of cargo molecules with different physicochemical properties (hydrophobic/hydrophilic, low/high molecular weight, etc.) could be expected.

[2] = Thiol-triggered calcein release (fluorescence dequenching); assay type: physicochemical; conditions: DTT 1 mM, 5 mM and 10 mM, 12 h incubation
Procedure: Lipidoids were fabricated into nanoparticles for all delivery applications. Briefly, lipidoids were mixed with sodium acetate buffer (25 mM, pH 5.2), sonicated for 30 min in an ultrasonic bath, followed by another 30 min of vigorous vortexing. The as-prepared blank LNPs were stored at 4° C. For Cy5-RNA/LNP, mRNA/LNP and protein/LNP complexation, blank lipidoid nanoparticles were mixed with RNA molecules or (−30)GFP-Cre protein in PBS buffer (pH 7.4) following our previously reported procedures and incubated at room temperature for another 30 min before use. Typical procedures for Nile red encapsulation are as follows: 5 μL of Nile red stock solution in acetone was added into an empty vial, which was then placed in a vacuum oven to completely remove the organic solvent. Then, a predetermined amount of blank LNP stock solution (1.0 mg/mL) was added into the vial. The mixture was sonicated for 40 min in an ultrasonic bath and stirred overnight at room temperature. The final concentration of Nile red was adjusted to 6.6×10-7 mol L-1 and 6×10-7 mol L-1 for thiol triggered release study and cell incubation, respectively, by diluting with PBS as necessary. Typical procedures for CPT and DiO/DiI FRET pair encapsulation are as follows: 100 μL of DiO/DiI stock solution in MeOH was charged into an empty vial and placed in a vacuum oven to remove the organic solvent. […]

HeLa cells = assay: Cytotoxicity of anticancer drug loaded nanoparticles (MTT); conditions: Dox series; 8 h of exposure, MTT after 48 h of incubation
Procedure: After 24 h of incubation at 37° C., 5% CO2, Dox, CPT or Oxa loaded nanoparticles were added to the cells and incubated for 8 h followed by media change. The cells were then incubated for another 40 h before cell viability analysis.
Cell viabilities of HeLa and HeLa-DsRed were measured using the standard MTT assay. In a 96-well plate, after incubating HeLa or HeLa-DsRed cells with blank or cargo-loaded nanoparticles, the MTT reagent (5 mg/mL, in 30 μL PBS buffer) was added and the cells were incubated for another 4 h at 37° C. The cell culture media was then carefully removed and 200 μL of DMSO was added to each well. The DMSO solution was then transferred into a clean 96-well plate and the absorbance at 570 nm was recorded by a microplate reader. All experiments were performed in quadruplicate.
Dose-dependent cytotoxicity was then examined.

SMILES	tdTomato fluorescent signals in skeletal muscle (Ai14 mice; (−30)GFP-Cre protein loaded, 50 μg protein)	tdTomato fluorescent signals in skeletal muscle (Ai14 mice; Cre mRNA loaded, 10 μg mRNA)	encapsulated nile red released ([1]; 20 μM Cysteine, 2 h) [%]	encapsulated nile red released ([1]; 20 μM Cysteine, 6 h) [%]	encapsulated nile red released ([1]; 1 mM DTT, 2 h) [%]	encapsulated nile red released ([1]; 1 mM DTT, 6 h) [%]	encapsulated nile red released ([1]; 5 mM DTT, 2 h) [%]	encapsulated nile red released ([1]; 5 mM DTT, 6 h) [%]	encapsulated nile red released ([1]; 10 mM DTT, 2 h) [%]	encapsulated nile red released ([1]; 10 mM DTT, 6 h) [%]	increase of calcein fluorescence intensity vs untreated and cysteine treated LNPs [2]	cell viability / dose-dependent cytotoxicity (HeLa cells) [%]
CC(C)CCCC(C)C1CCC2C3CC=C4CC(OC(=O)NCCSSCCOC(=O)CCN(CCC(=O)OCCSSCCNC(=O)OC5CCC6(C)C(=CCC7C6CCC6(C)C(C(C)CCCC(C)C)CCC76)C5)CCN5CCCC5)CCC4(C)C3CCC12C (stereo not drawn) [Lipidoid 76-OCholB]	strong tdTomato fluorescent signals	strong tdTomato fluorescent signals	–	–	–	–	–	–	–	–	–	–
CCN(CC)CCN(CCC(=O)OCCSSCCNC(=O)OC1CCC2(C)C(=CCC3C2CCC2(C)C(C(C)CCCC(C)C)CCC32)C1)CCC(=O)OCCSSCCNC(=O)OC1CCC2(C)C(=CCC3C2CCC2(C)C(C(C)CCCC(C)C)CCC32)C1 (stereo not drawn) [Lipidoid 75-OCholB]	–	–	4.2	6.9	33.5	44.0	61.7	84.2	67.4	86.4	4.7-6.4 folds	> 80
